The assay concerns the target T1, human capsaicin receptor (Homo sapiens, UniProt Q8NER1).
T1 construct: pBK-CMV expression construct encoding the full length human capsaicin receptor; expressed in transfected cells
As to the kind of experiment: Calcium mobilization assay, determination of antagonist activity (Example 6). Type of assay: cell-based. Particulars: determined as described in Example 6 (calcium mobilization, antagonist activity); Table II. In a few lines: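 Antagonism measured as inhibition of capsaicin-evoked (final concentration = EC50, from an 8-point 1 nM–3 μM curve) Fluo-3 calcium signal in stable hVR1-HEK293 cells. Test compounds at 1–5 μM final, 0.5–6 h dark preincubation at room temperature. IC50 = concentration giving 50% reduction versus agonist-only response.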
(A change in cytosolic calcium serves as a functional read-out for many receptors and channels.)

The structures appear in SMILES notation.

T1 sequence (Q8NER1 whole entry): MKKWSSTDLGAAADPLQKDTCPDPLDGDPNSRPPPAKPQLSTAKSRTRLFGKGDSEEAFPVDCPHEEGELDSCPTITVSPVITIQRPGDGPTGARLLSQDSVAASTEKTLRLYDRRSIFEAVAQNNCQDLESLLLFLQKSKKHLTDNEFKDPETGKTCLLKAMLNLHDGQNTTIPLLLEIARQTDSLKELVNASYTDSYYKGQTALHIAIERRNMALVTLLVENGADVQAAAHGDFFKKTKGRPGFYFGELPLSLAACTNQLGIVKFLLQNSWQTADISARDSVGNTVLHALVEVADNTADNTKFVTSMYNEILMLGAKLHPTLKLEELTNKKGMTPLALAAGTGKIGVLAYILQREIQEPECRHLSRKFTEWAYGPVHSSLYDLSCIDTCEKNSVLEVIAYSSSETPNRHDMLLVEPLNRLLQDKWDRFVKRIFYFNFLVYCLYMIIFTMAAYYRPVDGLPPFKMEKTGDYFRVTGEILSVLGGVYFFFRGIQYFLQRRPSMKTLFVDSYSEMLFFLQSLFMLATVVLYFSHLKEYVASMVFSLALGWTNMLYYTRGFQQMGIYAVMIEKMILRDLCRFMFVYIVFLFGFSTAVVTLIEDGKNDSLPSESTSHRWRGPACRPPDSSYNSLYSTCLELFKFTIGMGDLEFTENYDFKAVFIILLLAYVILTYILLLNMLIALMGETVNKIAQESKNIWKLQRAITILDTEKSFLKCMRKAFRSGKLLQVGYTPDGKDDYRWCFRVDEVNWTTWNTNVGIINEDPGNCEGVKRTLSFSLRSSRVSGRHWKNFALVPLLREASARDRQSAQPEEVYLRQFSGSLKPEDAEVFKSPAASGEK

By IC50 is commonly meant the concentration at which inhibition is half-maximal. With `COC[C@H]1CCCN1c1nc(-c2ccc(F)c(Cl)c2)cc(N2CCN(c3ncccc3Cl)C[C@H]2C)n1` [Example 733, 4-(3-chloro-4-fluorophenyl)-6-[(2R)-4-(3-chloropyridin-2-yl)-2-methylpiperazin-1-yl]-2-[(2R)-2-(methoxymethyl)pyrrolidin-1-yl]pyrimidine], the IC50 is not above 1000 nM. For the compound `C[C@@H]1CN(c2ncccc2Cl)CCN1c1cc(-c2ccc(F)c(Cl)c2)nc(N2CCCCC2)n1` [Example 734, 4-(3-chloro-4-fluorophenyl)-6-[(2R)-4-(3-chloropyridin-2-yl)-2-methylpiperazin-1-yl]-2-piperidin-1-ylpyrimidine], the IC50 is not above 1000 nM. Regarding `COC[C@@H]1CCCN1c1nc(-c2ccc(F)c(Cl)c2)cc(N2CCN(c3ncccc3Cl)C[C@H]2C)n1` [Example 735, 4-(3-chloro-4-fluorophenyl)-6-[(2R)-4-(3-chloropyridin-2-yl)-2-methylpiperazin-1-yl]-2-[(2S)-2-(methoxymethyl)pyrrolidin-1-yl]pyrimidine], the IC50 was not above 1000 nM.

On to `Cc1cc(-c2cc(N3CCN(c4ncccc4C(F)(F)F)CC3)nc(N(C)C3CC3)n2)ccc1F` [Example 736, N-cyclopropyl-4-(4-fluoro-3-methylphenyl)-N-methyl-6-{4-[3-(trifluoromethyl)pyridin-2-yl]piperazin-1-yl}pyrimidin-2-amine], for which the IC50 was not above 1000 nM. The result for `COCCN(C)c1nc(-c2ccc(F)c(C)c2)cc(N2CCN(c3ncccc3C(F)(F)F)CC2)n1` [Example 737, 4-(4-fluoro-3-methylphenyl)-N-(2-methoxyethyl)-N-methyl-6-{4-[3-(trifluoromethyl)pyridin-2-yl]piperazin-1-yl}pyrimid in-2-amine] reads not above 1000 nM; that for `CCN(C)c1nc(-c2ccc(F)c(C)c2)cc(N2CCN(c3ncccc3C(F)(F)F)CC2)n1` [Example 738, N-ethyl-4-(4-fluoro-3-methylphenyl)-N-methyl-6-{4-[3-(trifluoromethyl)pyridin-2-yl]piperazin-1-yl)pyrimidin-2-amine], not above 1000 nM; that for `Cc1cc(-c2cc(N3CCN(c4ncccc4C(F)(F)F)CC3)nc(N3C(C)C=CC3C)n2)ccc1F` (stereo not drawn) [Example 739, 2-(2,5-dimethyl-2,5-dihydro-1H-pyrrol-1-yl)-4-(4-fluoro-3-methylphenyl)-6-{4-[3-(trifluoromethyl)pyridin-2-yl]piperazin-1-yl}pyrimidine], not above 1000 nM. The result for `CC1CC(=O)N1c1nc(-c2ccc(F)c(Cl)c2)cc(N2CCN(c3ncccc3C(F)(F)F)CC2)n1` (stereo not drawn) [Example 740, 1-(4-(3-chloro-4-fluorophenyl)-6-{4-[3-(trifluoromethyl)pyridin-2-yl]piperazin-1-yl}pyrimidin-2-yl)-4-methylazetidin-2-one] reads not above 1000 nM; that for `CC1CCCCN1c1nc(-c2ccc(F)c(Cl)c2)cc(N2CCN(c3ncccc3Cl)C[C@H]2C)n1` (stereo partly drawn) [Example 741, 4-(3-chloro-4-fluorophenyl)-6-[(2R)-4-(3-chloropyridin-2-yl)-2-methylpiperazin-1-yl]-2-(2-methytpiperidin-1-yl)pyrimidine], not above 1000 nM. The result for `C[C@@H]1CN(c2ncccc2Cl)CCN1c1cc(-c2ccc(F)c(Cl)c2)nc(N2CCOC(C)(C)C2)n1` [Example 742, 4-{4-(3-chloro-4-fluorophenyl)-6-[(2R)-4-(3-chloropyridin-2-yl)-2-methylpiperazin-1-yl]pyrimidin-2-yl}-2,2-dimethylmorpholine] reads not above 1000 nM; that for `Cc1cc(-c2cc(N3CCN(c4ncccc4Cl)CC3)nc(N3CCOC(C)(C)C3)n2)ccc1F` [Example 743, 4-{4-[4-(3-chloropyridin-2-yl)piperazin-1-yl]-6-(4-fluoro-3-methylphenyl)pyrimidin-2-yl]-2,2-dimethylmorpholine], not above 1000 nM; that for `Cc1cc(-c2cc(N3CCN(c4ncccc4Cl)CC3)nc(N3CCCCC3C)n2)ccc1F` (stereo not drawn) [Example 744, 4-[4-(3-chloropyridin-2-yl)piperazin-1-yl]-6-(4-fluoro-3-methylphenyl)-2-(2-methylpiperidin-1-yl)pyrimidine], not above 1000 nM.
